{
  "source": "patent US12472182B2",
  "about": "“Compositions comprising regulatory t cells and methods of making and using the same” (Cellenkos, Inc., priority 2019, dated 2025)",
  "key": {"[1]": {"test_system": "interferon (IFN)-gamma released by SLE-PBMC", "assay": "IFN-gamma release by pathogenic lupus cells", "assay_type": "cell-based, human", "details": "control, non-specific inflammatory stimulus", "source_text": "FIG. 32 is a bar graph depicting the amount of interferon (IFN)-gamma released by pathogenic lupus cells in the presence or absence of combinations of (1) activated Treg cells; (2) ruxolitinib; and/or (3) camptothecin. Rux=ruxolitinib. SLE-PBMC=peripheral blood mononuclear cells derived from subjects with systemic lupus erythematosus. D6=Day 6."}, "[2]": {"test_system": "xenogeneic mouse graft versus host disease (GVHD) model", "details": "in vivo", "experimental": "FIG. 33 depicts a schematic for treatment of a xenogeneic mouse graft versus host disease (GVHD) model with a ruxolitinib and activated Treg cells regimen. PBMC=peripheral blood mononuclear cells.\nA xenogeneic mouse graft versus host disease (GVHD) model was treated with a ruxolitinib and activated CB Treg cells regimen, as depicted in FIG. 33. NSG mice underwent sublethal irradiation on day −1 followed by injection of 1×10^7 donor peripheral blood (PB) mononuclear cells (MNCs) on day 0. Oral ruxolitinib at 1 mg daily was fed continuously to the mice in the presence or absence of 1×10^7 CB Treg cells, tagged with CellTrace™ Violet dye (ThermoFisher), administered on days +4, +7, +11, +18. Mice were followed every other day for weight, GVHD score and survival. Serial blood draws were performed to analyze for cell compartment and cytokine assays."}},
  "data": [
    {"smiles": "CC[C@@]1(O)C(=O)OCc2c1cc1n(c2=O)Cc2cc3ccccc3nc2-1", "note": "[Camptothecin]", "values": [
      {"measurement": "IFNγ secretion from CB Treg cells", "setting": "[1]", "result": "does not increase IFNγ secretion"}
    ]},
    {"smiles": "N#CC[C@H](C1CCCC1)n1cc(-c2ncnc3[nH]ccc23)cn1", "note": "[ruxolitinib]", "values": [
      {"measurement": "CB Treg persistence", "setting": "[2]", "result": "improved CB Treg persistence"}
    ]}
  ]
}
